Assay results reported in patent US20250345426A1, “METHODS FOR MAKING AND USING THERAPEUTIC CELLS” (THE REGENTS OF THE UNIVERSITY OF CALIFORNIA, priority 2022, published 2025).
“Also recorded” adds a separate entry of the source.

Key:
Raji tumor xenografts = assay: Raji xenograft in NSG mice treated with inhibitor-preconditioned rituximab CAR-T cells; format: in vivo; conditions: NSG mice, Raji i.v., preconditioned rituximab CAR-T cells, bioluminescence, vs vehicle control
Method: FIG. 2A-C. […] (A) Tumor signal (in photons/sec/cm^2/sr) in individual animals as quantified by bioluminescence imaging. […] Statistical significance was determined by Mann-Whitney U test with Holm-Sidak correction for multiple comparisons. * p<0.05, n.s. not statistically significant. (B) Kaplan-Meier survival curve (top) and table of median survival period in days (bottom). (C) Frequency of human CD45+EGFRt+ cell in peripheral blood collected from mice on day 8 after first dose of T-cell infusion. Statistical significance was determined by two-tailed Student's t test with Sidak correction for multiple comparisons. * p<0.05, ** p<0.01.
In vivo studies. Six- to eight-week-old NOD/SCID/IL-2Rγ^null (NSG) mice were obtained from UCLA Department of Radiation and Oncology. The protocol was approved by UCLA Institutional Animal Care and Used Committee. […] Details of the dose and timing of tumor injection, T-cell injection, and tumor re-challenge are indicated in the text and figures. Tumor progression/regression was monitored with an IVIS Illumina III LT Imaging System (PerkinElmer). Blood samples were harvested via retro-orbital bleeding 3 days post T-cell injection and every 10-13 days thereafter. Mice were euthanized at the humane endpoint. Bone marrow, spleen and liver were collected after euthanasia. Tissues were ground and passed through a 100-μm filter followed by red-blood-cell lysis prior to flow-cytometry analysis.

Leu16 CAR-T cells = assay: Antigen-independent activation and exhaustion marker expression by flow cytometry, Leu16 CAR-T cells; format: cell-based, human; conditions: equivalent concentrations as for rituximab CAR-T cells
Excerpt: FIG. 3A-G. Pharmacological modulation of Leu16 CAR-T cells modestly dampens tonic signaling while enhancing anti-tumor efficacy. (A) Pictorial representation of the correlation between tonic signaling-modulated rituximab CAR-T cells and in vivo anti-tumor efficacy. (B) Pictorial representation of pharmacological modulation strategy aimed to either increase or decrease Leu16 CAR tonic signaling; c-MYC (MYCi975) and SREBP (betulin) inhibition increased tonic signaling whereas mTORC1 (rapamycin) inhibition decreased tonic signaling in rituximab CAR-T cells. (C) % distribution of T-cell subtypes in CAR^+ T cells after 6 days of pharmacological modulation (left) and Tn/scm enrichment (right). […] (F) Tumor signal (in photons/sec/cm2/sr) in individual animals as quantified by bioluminescence imaging. […]
Antibody staining for flow-cytometry analysis. EGFRt expression was measured with biotinylated cetuximab (Eli Lilly; biotinylated in-house), followed by PE-conjugated streptavidin (Jackson ImmunoResearch #016-110-084). CAR expression was quantified by surface epitope staining using anti-Fc (Alexa Fluor 488, Jackson ImmunoResearch #709-546-098). […] T-cell subtype of CAR-T cells was evaluated by antibody staining for CD45RO (VioBlue®, clone REA611, Miltenyi #130-119-620) and CD62L (APC, clone DREG56, Invitrogen #17-0629-42) after 5-6 days of inhibitor culture (FIG. 1, FIG. 3). […]

| Molecule | tumor outgrowth / tumor progression (Raji tumor xenografts) | tonic signaling (Leu16 CAR-T cells) |
| --- | --- | --- |
| C=C(C)[C@@H]1CC[C@]2(CO)CC[C@]3(C)[C@H](CC[C@@H]4[C@@]5(C)CC[C@H](O)C(C)(C)[C@@H]5CC[C@]43C)[C@@H]12 [betulin, Betulin] | accelerated tumor progression | dampened; also recorded: significant decrease |
| MYCi975 | accelerated tumor progression | dampened |
